Experimental data: PubChem BioAssay AID248 (DTP/NCI, 2004)
Inconclusive results and toxic doses are left out. Cut-off read from the data, not from the text of the source: active = T/C of 150% or more; inactive = T/C below 125%.

Tested on: L1210 leukemia ip in BDF1 mice, survival T/C
Test: NCI In Vivo Anticancer Drug Screen. Data for tumor model L1210 Leukemia (intraperitoneal) in B6D2F1 (BDF1) mice
Settings: endpoint: mean survival time, higher = longer survival
Summary of the method: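 In this screen, tumor-bearing mice given compound are compared to those given vehicle, and their survival values are reported as a treated-to-control quotient.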

Measured: T/C

CCC1CCC(NC(C)=O)CC1 (stereo not given)
inactive: dose: 25.0 mg/kg/injection, schedule: Q01DX001 (ip), vehicle: saline with Tween-80 96 % of control | dose: 50.0 mg/kg/injection, schedule: Q01DX001 (ip), vehicle: saline with Tween-80 108 % of control | dose: 100.0 mg/kg/injection, schedule: Q01DX001 (ip), vehicle: saline with Tween-80 94 % of control

O=C(CC(=O)C(F)(F)F)c1cccs1.O=C(CC(=O)C(F)(F)F)c1cccs1.O=C(CC(=O)C(F)(F)F)c1cccs1.[Cr]
inactive: dose: 100.0 mg/kg/injection, schedule: Q01DX001 (ip), vehicle: other 91 % of control | dose: 100.0 mg/kg/injection, schedule: Q04DX003 (ip), vehicle: other 97 % of control | dose: 200.0 mg/kg/injection, schedule: Q01DX001 (ip), vehicle: other 94 % of control | dose: 200.0 mg/kg/injection, schedule: Q04DX003 (ip), vehicle: other 103 % of control | dose: 400.0 mg/kg/injection, schedule: Q01DX001 (ip), vehicle: other 96 % of control | dose: 400.0 mg/kg/injection, schedule: Q04DX003 (ip), vehicle: other 94 % of control

CCOC(=O)CC1CCC/C1=N/O (stereo not given)
inactive: dose: 75.0 mg/kg/injection, schedule: Q01DX009 (sc), vehicle: olive oil, sesame oil, peanut oil 98 % of control | dose: 150.0 mg/kg/injection, schedule: Q01DX009 (sc), vehicle: olive oil, sesame oil, peanut oil 94 % of control | dose: 300.0 mg/kg/injection, schedule: Q01DX009 (sc), vehicle: olive oil, sesame oil, peanut oil 100 % of control

COc1ccc(CN2CCCN(Cc3ccc(OC)cc3)C2c2c(O)ccc3ccccc23)cc1
inactive: dose: 5.0 mg/kg/injection, schedule: Q01DX001 (ip), vehicle: acetone 100 % of control | dose: 10.0 mg/kg/injection, schedule: Q01DX001 (ip), vehicle: acetone 95 % of control | dose: 20.0 mg/kg/injection, schedule: Q01DX001 (ip), vehicle: acetone 92 % of control | dose: 40.0 mg/kg/injection, schedule: Q01DX001 (ip), vehicle: acetone 88 % of control

O=c1c2c(O)cccc2oc2cccc(O)c12
inactive: dose: 100.0 mg/kg/injection, schedule: Q01DX009 (ip), vehicle: saline with Tween-80 95 % of control | dose: 200.0 mg/kg/injection, schedule: Q01DX009 (ip), vehicle: saline with Tween-80 91 % of control | dose: 400.0 mg/kg/injection, schedule: Q01DX009 (ip), vehicle: saline with Tween-80 96 % of control

CN(C)C(=O)CCOc1cccc2ccccc12
inactive: dose: 75.0 mg/kg/injection, schedule: Q01DX001 (ip), vehicle: saline 100 % of control

CCCCCCCCS(=O)(=O)CCO
inactive: dose: 100.0 mg/kg/injection, schedule: Q01DX009 (ip), vehicle: carboxymethylcellulose (CMC) 93 % of control | dose: 100.0 mg/kg/injection, schedule: Q04DX003 (ip), vehicle: carboxymethylcellulose (CMC) 106 % of control | dose: 200.0 mg/kg/injection, schedule: Q01DX009 (ip), vehicle: carboxymethylcellulose (CMC) 90 % of control | dose: 200.0 mg/kg/injection, schedule: Q04DX003 (ip), vehicle: carboxymethylcellulose (CMC) 101 % of control | dose: 400.0 mg/kg/injection, schedule: Q01DX009 (ip), vehicle: carboxymethylcellulose (CMC) 95 % of control | dose: 400.0 mg/kg/injection, schedule: Q04DX003 (ip), vehicle: carboxymethylcellulose (CMC) 106 % of control

CCCCC(=O)N(CC)CC
inactive: dose: 100.0 mg/kg/injection, schedule: Q01DX001 (ip), vehicle: acetone 97 % of control | dose: 200.0 mg/kg/injection, schedule: Q01DX001 (ip), vehicle: acetone 97 % of control

O=C(O)c1cn(C2CCCCC2)c(=O)[nH]c1=O
inactive: dose: 25.0 mg/kg/injection, schedule: Q01DX Z (ip), vehicle: methylcellulose (MC) 107 % of control | dose: 50.0 mg/kg/injection, schedule: Q01DX Z (ip), vehicle: methylcellulose (MC) 91 % of control
